Data taken from patent publication US20100261693A1, “METHOD FOR TREATING CUSHING'S SYNDROME” (priority 2007, published 2010).

How the values were obtained:
[1] = tested on: Cushing's syndrome secondary to ectopic ACTH secretion; test: Case-study: mifepristone in a patient with Cushing's syndrome secondary to ectopic ACTH secretion; type: in vivo, human; details: person
Description: A subject, first presented with clinical symptoms of Cushing's syndrome in August 2006, and they were diagnosed with Cushing's syndrome secondary to ectopic ACTH secretion in March 2007.

[2] = tested on: Cushing's syndrome (ectopic ACTH secretion); details: cited from earlier work
[3] = 200 mg three times a day, after 2 weeks of treatment

CC#C[C@]1(O)CC[C@H]2[C@@H]3CCC4=CC(=O)CCC4=C3[C@@H](c3ccc(N(C)C)cc3)C[C@@]21C [mifepristone]
concomitant insulin treatment [1, 3]: insulin was stopped
dose of concomitant metformin [1, 3]: decreased by two
general clinical consequences of hypercortisolism [1, 3]: rapidly improved
glycemia [1, 3]: returned to normal
dose of enalapril previously administered for hypertension ([1]; mifepristone 200 mg three times a day): decreased from 30 mg to 10 mg
outcome of fractioned dosage ([2]; fractioned dosage, young child): successfully given
efficacy in clinical trials ([2]; high-dose mifepristone once a day): some efficacy
